According to PMC9048745, “Physicochemical investigation of a novel curcumin diethyl γ-aminobutyrate, a carbamate ester prodrug of curcumin with enhanced anti-neuroinflammatory activity” (PLoS ONE, 2022):

Key:
BV-2 microglial cells = assay: In vitro cellular uptake (fluorescence microscopy); format: cell-based, murine; details: BV-2 cells, 4-h incubation, 20 μM and 100 μM, compared with curcumin
Description: BV-2 microglial cells were plated in a 96-well plate (Costar, NY, USA) at a density of 10,000 cells/well for 24 h. The cells were incubated in DMEM media without phenol red for 4 h in the presence of curcumin and CUR-2GE at concentrations of 20 μM and 100 μM. Then, the sample was washed with PBS and the fluorescence intensity was measured using a fluorescence microscope (Olympus IX51 inverted microscope, Tokyo, Japan).

[1] = tested on: NO production in LPS-stimulated BV-2 microglial cells; assay: Nitric oxide assay (Griess reagent); format: cell-based, murine; details: 10 μM, 12 h pre-incubation, then 1 μg/mL LPS 24 h; compared with curcumin
Description: BV-2 microglial cells were plated in a 24-well plate at a density of 2 × 10^5 per well for 24 h. The cells were pre-incubated for 12 h with curcumin (10 μM), CUR-2GE (10 μM), medium (DMEM), or a vehicle (0.5% DMSO). The cells were then induced with 1 μg/mL LPS for 24 h. The culture medium samples were collected and analyzed for nitric oxide (NO) and cytokines (TNF- and IL-6) using NO and enzyme-linked immunoassay (ELISA) assays, respectively.
Nitric oxide (NO) production was determined by measuring nitrite, the NO metabolite, using Griess reagent. Briefly, the culture medium (100 μL) was added with 1% sulfanilamide (50 μL) and incubated for 5 min. Then, a solution of 0.1% N-(1-naphthyl)ethylenediamine dihydrochloride (50 μL) was added and incubated for 5 min. The absorbance was measured at 520 nm using the microplate reader, and the nitrite concentration was calculated against a calibration curve using NaNO₂ as a standard.

Structure (SMILES): CCOC(=O)CCCNC(=O)Oc1ccc(/C=C/C(=O)/C=C(O)/C=C/c2ccc(OC(=O)NCCCC(=O)OCC)c(OC)c2)cc1OC [CUR-2GE, Curcumin diethyl γ-aminobutyrate]
- cellular uptake (fluorescence intensity) (BV-2 microglial cells): higher fluorescence intensity than curcumin
- inhibition of NO production [1]: to a greater extent than curcumin
